PubChem BioAssay (NCI)
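Interpolation was linear, between the two tested concentrations surrounding the appropriate level; five concentrations were tested over 48 hours in 96-well plates. GI50 is the concentration that inhibits growth by half. TGI: total growth inhibition.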

Key:
Assay in all cases: DTP human tumour cell line panel, 48 h
MALME-3M melanoma = test system: MALME-3M melanoma
MDA-MB-231 breast = test system: MDA-MB-231 breast
KM12 colon = test system: KM12 colon
NCI-H226 lung = test system: NCI-H226 lung
RXF 393 renal = test system: RXF 393 renal
OVCAR-3 ovarian = test system: OVCAR-3 ovarian
LOX IMVI melanoma = test system: LOX IMVI melanoma
NCI-H460 lung = test system: NCI-H460 lung
A498 renal = test system: A498 renal
UACC-62 melanoma = test system: UACC-62 melanoma
HCC-2998 colon = test system: HCC-2998 colon
SF-295 CNS = test system: SF-295 CNS
CAKI-1 renal = test system: CAKI-1 renal
SN12C renal = test system: SN12C renal
SK-OV-3 ovarian = test system: SK-OV-3 ovarian
SK-MEL-5 melanoma = test system: SK-MEL-5 melanoma
HCT-116 colon = test system: HCT-116 colon
MDA-MB-435 = test system: MDA-MB-435
HOP-62 NSCLC = test system: HOP-62 NSCLC
OVCAR-5 ovarian = test system: OVCAR-5 ovarian
SNB-19 CNS = test system: SNB-19 CNS
BT-549 breast = test system: BT-549 breast
MCF7 breast = test system: MCF7 breast
NCI-H23 lung = test system: NCI-H23 lung
MOLT-4 leukemia = test system: MOLT-4 leukemia
SR leukemia = test system: SR leukemia
CCRF-CEM leukemia = test system: CCRF-CEM leukemia
HOP-92 NSCLC = test system: HOP-92 NSCLC
RPMI-8226 leukemia = test system: RPMI-8226 leukemia
OVCAR-4 ovarian = test system: OVCAR-4 ovarian
HCT-15 colon = test system: HCT-15 colon
UACC-257 melanoma = test system: UACC-257 melanoma
OVCAR-8 ovarian = test system: OVCAR-8 ovarian
U251 CNS = test system: U251 CNS
T-47D breast = test system: T-47D breast
SK-MEL-28 melanoma = test system: SK-MEL-28 melanoma
DU-145 prostate = test system: DU-145 prostate
786-0 renal = test system: 786-0 renal
SNB-75 CNS = test system: SNB-75 CNS
ACHN renal = test system: ACHN renal
HT29 colon = test system: HT29 colon
UO-31 renal = test system: UO-31 renal
K-562 leukemia = test system: K-562 leukemia
NCI/ADR-RES ovarian = test system: NCI/ADR-RES ovarian
PC-3 prostate = test system: PC-3 prostate
HS 578T breast = test system: HS 578T breast
NCI-H522 lung = test system: NCI-H522 lung
A549 NSCLC = test system: A549 NSCLC
TK-10 renal = test system: TK-10 renal
HL-60(TB) leukemia = test system: HL-60(TB) leukemia
M14 melanoma = test system: M14 melanoma
SF-539 CNS = test system: SF-539 CNS
COLO 205 colon = test system: COLO 205 colon
SW-620 colon = test system: SW-620 colon
SF-268 CNS = test system: SF-268 CNS
EKVX NSCLC = test system: EKVX NSCLC
SK-MEL-2 melanoma = test system: SK-MEL-2 melanoma
IGROV1 ovarian = test system: IGROV1 ovarian

Compound: COc1ccc2c(c1)[n+]([O-])c(C#N)c(NC(=O)c1cccs1)[n+]2[O-]
- GI50 (MALME-3M melanoma): > 100 µM
- TGI (MALME-3M melanoma): > 100 µM
- GI50 (MDA-MB-231 breast): > 100 µM
- TGI (MDA-MB-231 breast): > 100 µM
- GI50 (KM12 colon): > 100 µM
- TGI (KM12 colon): > 100 µM
- GI50 (NCI-H226 lung): > 100 µM
- TGI (NCI-H226 lung): > 100 µM
- GI50 (RXF 393 renal): > 100 µM
- TGI (RXF 393 renal): > 100 µM
- GI50 (OVCAR-3 ovarian): > 100 µM
- TGI (OVCAR-3 ovarian): > 100 µM
- GI50 (LOX IMVI melanoma): > 100 µM
- TGI (LOX IMVI melanoma): > 100 µM
- GI50 (NCI-H460 lung): > 100 µM
- TGI (NCI-H460 lung): > 100 µM
- GI50 (A498 renal): > 100 µM
- TGI (A498 renal): > 100 µM
- GI50 (UACC-62 melanoma): > 100 µM
- TGI (UACC-62 melanoma): > 100 µM
- GI50 (HCC-2998 colon): > 100 µM
- TGI (HCC-2998 colon): > 100 µM
- GI50 (SF-295 CNS): > 100 µM
- TGI (SF-295 CNS): > 100 µM
- GI50 (CAKI-1 renal): > 100 µM
- TGI (CAKI-1 renal): > 100 µM
- GI50 (SN12C renal): > 100 µM
- TGI (SN12C renal): > 100 µM
- GI50 (SK-OV-3 ovarian): > 100 µM
- TGI (SK-OV-3 ovarian): > 100 µM
- GI50 (SK-MEL-5 melanoma): > 100 µM
- TGI (SK-MEL-5 melanoma): > 100 µM
- GI50 (HCT-116 colon): > 100 µM
- TGI (HCT-116 colon): > 100 µM
- GI50 (MDA-MB-435): > 100 µM
- TGI (MDA-MB-435): > 100 µM
- GI50 (HOP-62 NSCLC): > 100 µM
- TGI (HOP-62 NSCLC): > 100 µM
- GI50 (OVCAR-5 ovarian): > 100 µM
- TGI (OVCAR-5 ovarian): > 100 µM
- GI50 (SNB-19 CNS): > 100 µM
- TGI (SNB-19 CNS): > 100 µM
- GI50 (BT-549 breast): > 100 µM
- TGI (BT-549 breast): > 100 µM
- GI50 (MCF7 breast): > 100 µM
- TGI (MCF7 breast): > 100 µM
- GI50 (NCI-H23 lung): > 100 µM
- TGI (NCI-H23 lung): > 100 µM
- GI50 (MOLT-4 leukemia): > 100 µM
- TGI (MOLT-4 leukemia): > 100 µM
- GI50 (SR leukemia): > 100 µM
- TGI (SR leukemia): > 100 µM
- GI50 (CCRF-CEM leukemia): > 100 µM
- TGI (CCRF-CEM leukemia): > 100 µM
- GI50 (HOP-92 NSCLC): > 100 µM
- TGI (HOP-92 NSCLC): > 100 µM
- GI50 (RPMI-8226 leukemia): > 100 µM
- TGI (RPMI-8226 leukemia): > 100 µM
- GI50 (OVCAR-4 ovarian): > 100 µM
- TGI (OVCAR-4 ovarian): > 100 µM
- GI50 (HCT-15 colon): > 100 µM
- TGI (HCT-15 colon): > 100 µM
- GI50 (UACC-257 melanoma): > 100 µM
- TGI (UACC-257 melanoma): > 100 µM
- GI50 (OVCAR-8 ovarian): > 100 µM
- TGI (OVCAR-8 ovarian): > 100 µM
- GI50 (U251 CNS): > 100 µM
- TGI (U251 CNS): > 100 µM
- GI50 (T-47D breast): > 100 µM
- TGI (T-47D breast): > 100 µM
- GI50 (SK-MEL-28 melanoma): > 100 µM
- TGI (SK-MEL-28 melanoma): > 100 µM
- GI50 (DU-145 prostate): > 100 µM
- TGI (DU-145 prostate): > 100 µM
- GI50 (786-0 renal): > 100 µM
- TGI (786-0 renal): > 100 µM
- GI50 (SNB-75 CNS): > 100 µM
- TGI (SNB-75 CNS): > 100 µM
- GI50 (ACHN renal): > 100 µM
- TGI (ACHN renal): > 100 µM
- GI50 (HT29 colon): > 100 µM
- TGI (HT29 colon): > 100 µM
- GI50 (UO-31 renal): > 100 µM
- TGI (UO-31 renal): > 100 µM
- GI50 (K-562 leukemia): > 100 µM
- TGI (K-562 leukemia): > 100 µM
- GI50 (NCI/ADR-RES ovarian): > 100 µM
- TGI (NCI/ADR-RES ovarian): > 100 µM
- GI50 (PC-3 prostate): > 100 µM
- TGI (PC-3 prostate): > 100 µM
- GI50 (HS 578T breast): > 100 µM
- TGI (HS 578T breast): > 100 µM
- GI50 (NCI-H522 lung): > 100 µM
- TGI (NCI-H522 lung): > 100 µM
- GI50 (A549 NSCLC): > 100 µM
- TGI (A549 NSCLC): > 100 µM
- GI50 (TK-10 renal): > 100 µM
- TGI (TK-10 renal): > 100 µM
- GI50 (HL-60(TB) leukemia): > 100 µM
- TGI (HL-60(TB) leukemia): > 100 µM
- GI50 (M14 melanoma): > 100 µM
- TGI (M14 melanoma): > 100 µM
- GI50 (SF-539 CNS): > 100 µM
- TGI (SF-539 CNS): > 100 µM
- GI50 (COLO 205 colon): > 100 µM
- TGI (COLO 205 colon): > 100 µM
- GI50 (SW-620 colon): > 100 µM
- TGI (SW-620 colon): > 100 µM
- GI50 (SF-268 CNS): > 100 µM
- TGI (SF-268 CNS): > 100 µM
- GI50 (EKVX NSCLC): > 100 µM
- TGI (EKVX NSCLC): > 100 µM

Compound: COc1nc(Cl)nc(Cl)c1Cl (tested in a mixture with another compound)
- TGI (MALME-3M melanoma): 47.3 µM
- TGI (MDA-MB-231 breast): > 39.1 µM
- TGI (NCI-H226 lung): 77 µM
- TGI (RXF 393 renal): 31.7 µM
- TGI (OVCAR-3 ovarian): 12.4 µM
- TGI (LOX IMVI melanoma): 12.8 µM
- TGI (NCI-H460 lung): 12.1 µM
- TGI (SK-MEL-2 melanoma): 22.6 µM
- TGI (A498 renal): 37.4 µM
- TGI (UACC-62 melanoma): 28.6 µM
- TGI (HCC-2998 colon): 0.672 µM
- TGI (SF-295 CNS): 36.3 µM
- TGI (CAKI-1 renal): 0.194 µM
- TGI (SN12C renal): 51.6 µM
- TGI (SK-OV-3 ovarian): 32.7 µM
- TGI (SK-MEL-5 melanoma): 31.5 µM
- TGI (HCT-116 colon): 19.5 µM
- TGI (MDA-MB-435): > 36.3 µM
- TGI (HOP-62 NSCLC): 10.3 µM
- TGI (OVCAR-5 ovarian): 49.9 µM
- TGI (SNB-19 CNS): 18.5 µM
- TGI (BT-549 breast): 22.5 µM
- TGI (MCF7 breast): 24.2 µM
- TGI (NCI-H23 lung): 20.8 µM
- TGI (MOLT-4 leukemia): 10.1 µM
- TGI (SR leukemia): 4.65 µM
- TGI (CCRF-CEM leukemia): 12.1 µM
- TGI (HOP-92 NSCLC): 14.9 µM
- TGI (RPMI-8226 leukemia): 5.61 µM
- TGI (OVCAR-4 ovarian): 14.1 µM
- TGI (HCT-15 colon): 18.7 µM
- TGI (UACC-257 melanoma): 12 µM
- TGI (OVCAR-8 ovarian): > 30.8 µM
- TGI (U251 CNS): 23 µM
- TGI (T-47D breast): 44.4 µM
- TGI (SK-MEL-28 melanoma): 62.9 µM
- TGI (DU-145 prostate): 15.5 µM
- TGI (786-0 renal): > 46.7 µM
- TGI (SNB-75 CNS): > 61.4 µM
- TGI (ACHN renal): 17.6 µM
- TGI (HT29 colon): 17.9 µM
- TGI (UO-31 renal): 1.94 µM
- TGI (K-562 leukemia): 23.8 µM
- TGI (NCI/ADR-RES ovarian): > 27.7 µM
- TGI (PC-3 prostate): 26 µM
- TGI (HS 578T breast): > 100 µM
- TGI (NCI-H522 lung): 1.55 µM
- TGI (A549 NSCLC): > 66 µM
- TGI (TK-10 renal): 19 µM
- TGI (IGROV1 ovarian): 26.2 µM
- TGI (M14 melanoma): 27.6 µM
- TGI (SF-539 CNS): 21.6 µM
- TGI (COLO 205 colon): 26.8 µM
- TGI (SW-620 colon): 20.8 µM
- TGI (SF-268 CNS): > 31.7 µM
- TGI (EKVX NSCLC): 1.4 µM
